Test results published in patent US20220249462A1, “COMPOSITIONS AND METHODS USING TRIGONELLINE TO PRODUCE INTRACELLULAR NAD+” (SOCIETE DES PRODUITS NESTLE S.A., priority 2019, published 2022).

Legend:
[1] = system: Human Skeletal Muscle Myotubes (HSMM); test: Colorimetric NAD+ quantification in human primary myoblasts differentiated to myotubes, 16 h treatment; type: cell-based; settings: different doses
Method: After one day, the differentiation is induced by a medium change for 4 days. Cells were treated with synthetic trigonelline monohydrate (FIG. 4A) or with Fenugreek seed extract enriched in trigonelline containing 40.45% trigonelline (FIG. 4B) for 16 h at difference doses. NAD+ was measured using colorimetric NAD+ quantification assay (Biovision NAD+/NADH Quantitation Colorimetric Kit #k337-100).

C57BL/6JRj male mice = test: Liver NAD+ in mice after oral gavage; type: in vivo; settings: equimolar of 300 mg/kg trigonelline, 120 minutes
Method: 10 weeks C57BL/6JRj male mice received trigonelline (sigma #T5509) or fenugreek seed extract enriched in trigonelline (40.45% trigonelline) by oral gavage (equimolar of 300 mg/kg trigonelline, n=8/group). After 120 minutes treatment, the liver was harvested and flash frozen in liquid nitrogen. NAD+ was measured in liver using an enzymatic method adapted from Dall, M., et al., Mol Cell Endocrinol, 2018. 473:p. 245-256.

[2] = system: Human Skeletal Muscle Myotubes (HSMM); settings: 6 h
Method: Human primary myoblasts from two different donors were seeded in 6 well plates at a density of 200′000 cells per well in skeletal muscle growth medium (SKM-M, AMSbio). After one day, the differentiation was induced by a medium change for 4 days using differentiation culture medium (Gibco No. 31330-028). Cells were treated with isotopically labelled trigonelline (13C carbonyl; 32H on methyl) for 6 h.
Cell extracts were separated on a Vanquish UHPLC+focused LC system (Thermo Scientific) with a hydrophilic liquid chromatography (HILIC) iHILIC-Fusion(P) column (Hilicon) carrying the dimensions 150×2.1 mm, 5 μm and a guard column (iHILIC-fusion(P), Hilicon) in front. The separation of metabolites was achieved by applying a linear solvent gradient in normal phase at 0.25 mL/min flow rate and 35° C. of temperature. As mobile phase, solvent A was water with 10 mM ammonium acetate and 0.04% (v/v) ammonium hydroxide, pH ˜9.3, and solvent B was acetonitrile.
The eluting metabolites were analyzed with an Orbitrap Fusion Lumos mass spectrometer (Thermo Scientific) with a heated electrospray ionization (H-ESI) source in positive and negative mode at a resolution of 60,000 at m/z of 200. Instrument control and data analysis were conducted using Xcalibur (Thermo Scientific).

[3] = system: RW1596 (myo-3p::GFP) worms; settings: 1 mM trigonelline chloride, 11 day old worms
Method: RW1596 (myo-3p::GFP) worms were collected at Day 1 (young adults) and at Day 11 (aged animals) for muscle integrity assessment. Worms were immobilized with tetramisole and analyzed by confocal microscopy, to assess the muscle fibers morphology shown by GFP fluorescence imaging. Trigonelline treatment with 1 mM trigonelline chloride and experimental measurements were started at Day 1 of wild type N2 worm adulthood, in a regimen of chronic exposure till experiments termination.

C. elegans [4] = settings: 1 mM trigonelline chloride, day 8 old worms
Method: Absolute quantification of the mtDNA copy number in wild type N2 worms was performed by real-time PCR. Relative values for nduo-1, and act-1 were compared within each sample to generate a ratio representing the relative level of mitochondrial DNA per nuclear genome. The average of at least two technical repeats was used for each biological data point. Each experiment was performed on at least ten independent biological samples (individual worms). Trigonelline treatment with 1 mM trigonelline chloride and experimental measurements were started at Day 1 of wild type N2 worm adulthood, in a regimen of chronic exposure till experiments termination.

C. elegans [5] = settings: 1 mM, chronic exposure from Day 1 of adulthood, wild type N2
Method: Worm lifespan tests were performed using about 100 animals per condition and scored manually every other day. Trigonelline treatment and experimental measurements were started at Day 1 of wild type N2 worm adulthood, in a regimen of chronic exposure till experiments termination.

C. elegans [6] = settings: 1 mM, day 8 and day 11 old worms
From the text: 45 to 60 worms per condition were manually scored for mobility after poking. Worms that were unable to respond to any repeated stimulation were scored as dead. […] Trigonelline treatment and experimental measurements were started at Day 1 of wild type N2 worm adulthood, in a regimen of chronic exposure til experiments termination.

C. elegans [7] = settings: 1 mM
Method: C. elegans mobility test was performed using the Movement Tracker software (Mouchiroud, L. et al. Curr Protoc Neurosci 77, 8.37.1-8.37.21 (2016)). The experiments were repeated at least twice. Trigonelline treatment and experimental measurements were started at Day 1 of wild type N2 worm adulthood, in a regimen of chronic exposure till experiments termination.

What does the source list for `C[n+]1cccc(C(=O)[O-])c1` [chemically synthesized trigonelline, trigonelline monohydrate]?
NAD+ content compared to the control [1]: significant increase in NAD+ content; NAD+ content in the liver compared to the control (C57BL/6JRj male mice): significant increase in NAD+ content in the liver

`C[n+]1cccc(C(=O)[O-])c1` [trigonelline (13C-carbonyl, C2H3), reference compound] was tested. Which “[13C]-isotopic enrichment of NAD+ (% of 13C-enrichment)” value ([2]; 500 μM labelled trigonelline, compared to NAD+ in baseline conditions, corrected for natural abundance) did it give?
The value was 45%.

How did the “NAD+ levels relative to control” value ([2]; 500 μM, human myotubes from 2 donors, LC-MS) turn out when `C[n+]1cccc(C(=O)[O-])c1` [trigonelline, 1-methylpyridin-1-ium-3-carboxylate] was run?
Its value is “enhancement of NAD+ levels”.

And the “Myofibrillar structure (GFP-tagged myosin morphology) compared to age matched control” value [3]?
Its value is “improved more organized myofibrillar structure”.

What about the “Mitochondrial (nduo-1) relative to nuclear (act-1) DNA ratio compared to control” value (C. elegans [4]) of the same molecule?
Its value is “higher than in the control group”.

How did the “Increase of lifespan (survival curve)” value (C. elegans [5]) turn out when `C[n+]1cccc(C(=O)O)c1` [trigonelline chloride] was run?
Its value is 21%.

What about the “Stimulated mobility score (percentage of worms responsive to a physical stimulus)” value (C. elegans [6]) of the same molecule?
The value was “more responsive to a physical stimulus”.

And the “Distance travelled during spontaneous mobility assay compared to control” value (C. elegans [7]; advanced aging phase)?
The value was “significantly increased”.

And the “Mean speed during spontaneous mobility assay compared to the control” value (C. elegans [7]; from day 1 adulthood)?
The value was “increased the mean speed”.
